In the experiment the target is Carbonic anhydrase 9 (Homo sapiens, UniProt Q16790).
Description: Inhibition of recombinant human carbonic anhydrase 9 catalytic domain expressed in Escherichia coli incubated for 15 mins prior to testing by stopped flow CO2 hydrase assay
For the compound `CC1(C)CC(=O)C2=C(C1)N(c1ccc(S(N)(=O)=O)cc1)C1=C(C(=O)CC(C)(C)C1)C2c1ccc(NS(=O)(=O)c2ccc3ccccc3c2)cc1`, the affinity corresponds to a Ki of 280 nM.

As for `CC1(C)CC(=O)C2=C(C1)N(c1ccc(S(N)(=O)=O)cc1)C1=C(C(=O)CC(C)(C)C1)C2c1cccc(NS(=O)(=O)c2ccc3ccccc3c2)c1`, the affinity corresponds to a Ki of 810 nM.

As for `CC1(C)CC(=O)C2=C(C1)N(c1ccc(S(N)(=O)=O)cc1)C1=C(C(=O)CC(C)(C)C1)C2c1cccc(NS(=O)(=O)c2ccccc2)c1`, the Ki (commonly a dissociation constant, usually derived from enzyme kinetics or from competition with a known ligand) came out at 110 nM.

`CC1(C)CC(=O)C2=C(C1)N(c1ccc(S(N)(=O)=O)cc1)C1=C(C(=O)CC(C)(C)C1)C2c1ccc(N)cc1`: the Ki was found to be 1000 nM.

In turn, `CC1(C)CC(=O)C2=C(C1)N(c1ccc(S(N)(=O)=O)cc1)C1=C(C(=O)CC(C)(C)C1)C2c1cccc(NS(=O)(=O)c2ccc(Br)cc2)c1` came in with a Ki of 250 nM. This Ki lies about 4-fold lower than the previous one.

The compound `COc1ccc(S(=O)(=O)Nc2cccc(C3C4=C(CC(C)(C)CC4=O)N(c4ccc(S(N)(=O)=O)cc4)C4=C3C(=O)CC(C)(C)C4)c2)cc1` had an inhibition constant Ki of 800 nM. This Ki lies about 3.2-fold higher than the previous one.

Turning to `CC1(C)CC(=O)C2=C(C1)N(c1ccc(S(N)(=O)=O)cc1)C1=C(C(=O)CC(C)(C)C1)C2c1ccc(NS(=O)(=O)c2ccc(Br)cc2)cc1`, the Ki is 1120 nM.

In turn, `CC1(C)CC(=O)C2=C(C1)N(c1ccc(S(N)(=O)=O)cc1)C1=C(C(=O)CC(C)(C)C1)C2c1ccc(NS(=O)(=O)c2ccccc2)cc1` displayed a Ki of 580 nM.

For the compound `Cc1ccc(S(=O)(=O)Nc2ccc(C3C4=C(CC(C)(C)CC4=O)N(c4ccc(S(N)(=O)=O)cc4)C4=C3C(=O)CC(C)(C)C4)cc2)cc1`, the inhibition constant Ki was found to be 100 nM.

Regarding `COc1ccc(S(=O)(=O)Nc2ccc(C3C4=C(CC(C)(C)CC4=O)N(c4ccc(S(N)(=O)=O)cc4)C4=C3C(=O)CC(C)(C)C4)cc2)cc1`, the affinity, expressed as Ki, was 440 nM.

`Cc1ccc(S(=O)(=O)Nc2cccc(C3C4=C(CC(C)(C)CC4=O)N(c4ccc(S(N)(=O)=O)cc4)C4=C3C(=O)CC(C)(C)C4)c2)cc1` had a Ki of 100 nM.

`CC1(C)CC(=O)C2=C(C1)N(c1ccc(S(N)(=O)=O)cc1)C1=C(C(=O)CC(C)(C)C1)C2c1cccc(N)c1` showed a Ki of 920 nM.

(Values after ChEMBL document CHEMBL3621088, “Synthesis of novel acridine bis-sulfonamides with effective inhibitory activity against the carbonic anhydrase isoforms I, II, IX and XII” (Bioorg Med Chem, 2015).)
